Square brackets hold non-standard residues; d marks the D form. Peptide text beside a SMILES is read from it. NMeF = CN[C@@H](Cc1ccccc1)C(=O)O; NMeS = CN[C@@H](CO)C(=O)O; Sar = CNCC(=O)O
Key:
[1] = molecular target: Human immunodeficiency virus type 1 integrase (Human immunodeficiency virus 1) (UniProt Q7ZJM1); experiment: Binding affinity to HIV-1 integrase measured after overnight incubation by chemiluminescence analysis relative to IN 118-128; design: concentration or dose not given beside the values
Sequence of Human immunodeficiency virus type 1 integrase (Human immunodeficiency virus 1) (Q7ZJM1 as listed by the source): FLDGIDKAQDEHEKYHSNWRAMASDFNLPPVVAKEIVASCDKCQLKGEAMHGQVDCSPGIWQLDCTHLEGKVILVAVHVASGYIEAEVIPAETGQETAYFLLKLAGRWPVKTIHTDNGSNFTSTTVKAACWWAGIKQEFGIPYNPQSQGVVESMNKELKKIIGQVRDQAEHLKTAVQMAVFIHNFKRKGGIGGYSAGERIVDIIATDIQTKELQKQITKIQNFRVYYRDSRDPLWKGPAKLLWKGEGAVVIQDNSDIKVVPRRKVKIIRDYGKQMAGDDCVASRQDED

[2] = tested on: Human immunodeficiency virus 1; experiment: Binding affinity to HLT-tagged HIV-1 Rev measured after overnight incubation by chemiluminescence analysis relative to IN 118-128; design: concentration or dose not given beside the values

SMILES	Activity [1]	Activity [2]
CC(C)[C@H](NC(=O)[C@@H](NC(=O)[C@@H](NC(=O)[C@H](CO)NC(=O)[C@@H](NC(=O)[C@H](Cc1ccccc1)N(C)C(=O)[C@H](CC(N)=O)NC(=O)[C@H](CO)NC(=O)CN)[C@@H](C)O)[C@@H](C)O)[C@@H](C)O)C(=O)N[C@@H](CCCCN)C(=O)N[C@@H](C)C(=O)O (H-GSN[NMeF]TSTTVKA-OH)	195%	177%
CC(C)[C@H](NC(=O)[C@@H](NC(=O)[C@@H](NC(=O)[C@H](CO)NC(=O)[C@@H](NC(=O)[C@H](Cc1ccccc1)NC(=O)[C@H](CC(N)=O)NC(=O)[C@H](CO)N(C)C(=O)CN)[C@@H](C)O)[C@@H](C)O)[C@@H](C)O)C(=O)N[C@@H](CCCCN)C(=O)N[C@@H](C)C(=O)O (H-G[NMeS]NFTSTTVKA-OH)	182%	293%
CC(C)[C@H](NC(=O)[C@@H](NC(=O)[C@@H](NC(=O)[C@H](CO)NC(=O)[C@@H](NC(=O)[C@H](Cc1ccccc1)NC(=O)[C@@H](N)CC(N)=O)[C@@H](C)O)[C@@H](C)O)[C@@H](C)O)C(=O)N[C@@H](CCCCN)C(=O)N[C@@H](C)C(=O)O (H-NFTSTTVKA-OH)	119%	152%
CC(C)[C@H](NC(=O)[C@@H](NC(=O)[C@@H](NC(=O)[C@H](CO)NC(=O)[C@@H](NC(=O)[C@H](Cc1ccccc1)NC(=O)[C@H](CC(N)=O)NC(=O)[C@@H](N)CO)[C@@H](C)O)[C@@H](C)O)[C@@H](C)O)C(=O)N[C@@H](CCCCN)C(=O)N[C@@H](C)C(=O)O (H-SNFTSTTVKA-OH)	207%	177%
CC(C)[C@H](NC(=O)[C@@H](NC(=O)[C@@H](NC(=O)[C@@H](N)CO)[C@@H](C)O)[C@@H](C)O)C(=O)N[C@@H](CCCCN)C(=O)N[C@@H](C)C(=O)O (H-STTVKA-OH)	144%	187%
CC(C)[C@H](NC(=O)[C@@H](NC(=O)[C@@H](NC(=O)[C@H](CO)NC(=O)[C@@H](N)[C@@H](C)O)[C@@H](C)O)[C@@H](C)O)C(=O)N[C@@H](CCCCN)C(=O)N[C@@H](C)C(=O)O (H-TSTTVKA-OH)	135%	111%
CNCC(=O)N[C@@H](CO)C(=O)N[C@@H](CC(N)=O)C(=O)N[C@@H](Cc1ccccc1)C(=O)N[C@H](C(=O)N[C@@H](CO)C(=O)N[C@H](C(=O)N[C@H](C(=O)N[C@H](C(=O)N[C@@H](CCCCN)C(=O)N[C@@H](C)C(=O)O)C(C)C)[C@@H](C)O)[C@@H](C)O)[C@@H](C)O (H-[Sar]SNFTSTTVKA-OH)	181%	294%

— ChEMBL document CHEMBL3217454, “Structureactivity relationship studies using peptide arrays: the example of HIV-1 Revintegrase interaction” (Medchemcomm, 2013)
